What was measured:
[1] = system: lipid peroxidation of microsome in rat liver; assay: Inhibitory action against lipid peroxidation of microsome in rat liver (TBA reactive substances, absorption at 535 nm); assay type: biochemical
Method: 10 μl of microsome fraction (protein concentration; 30-50 mg/ ml) prepared from rat liver and 10 μl of a solution of a compound to be tested in ethanol are added to 0.5 ml of 0.1 M Tris hydrochloride buffer (pH7.5) containing 14 mM MgCl2, which is mixed and preincubated at 37° C. for 5 minutes. Then, 10 μl of 0.2M adenosine diphosphate, 10 μl of 12 mM FeSO4, 40 μl of NADPH reproduced system and distilled water are added to make 1 m1, mixed and reacted at 37° C. for 10 minutes.

| Molecule | melting point [°C] | Inhibiting Concentration (IC50 μg/ml) ([1]; Example 7, rat liver microsome fraction, ADP/FeSO4/NADPH system, 37° C. for 10 minutes) [µg/mL] | Inhibiting Concentration (IC50 μg/ml) ([1]; Example 8, method of Example 7, deamino form compared with synthetic (1″S, 3″S) Martefragin A) [µg/mL] |
| --- | --- | --- | --- |
| CC[C@H](C)CCc1nc(COOCc2ccccc2)c(-c2c[nH]c3ccccc23)o1 [compound 55] | 138.5 to 139.5 |  |  |
| (1″S, 3″S) Martefragin A [(1″S, 3″S)-19] |  | 1.07 | 1.35 |
